Measured values taken from paper doi:10.1101/208439v1 (biorxiv, 2017).
Where two headings read alike, the source gives them in different places. Values belong to the molecule of their own block, whether it stands above or below them.

How the values were obtained:
GLP = biological target: T1, GLP (Homo sapiens, UniProt Q9H9B1); experiment: biochemical
T1 construct: gene EHMT1
T1 sequence (Q9H9B1 1-1298): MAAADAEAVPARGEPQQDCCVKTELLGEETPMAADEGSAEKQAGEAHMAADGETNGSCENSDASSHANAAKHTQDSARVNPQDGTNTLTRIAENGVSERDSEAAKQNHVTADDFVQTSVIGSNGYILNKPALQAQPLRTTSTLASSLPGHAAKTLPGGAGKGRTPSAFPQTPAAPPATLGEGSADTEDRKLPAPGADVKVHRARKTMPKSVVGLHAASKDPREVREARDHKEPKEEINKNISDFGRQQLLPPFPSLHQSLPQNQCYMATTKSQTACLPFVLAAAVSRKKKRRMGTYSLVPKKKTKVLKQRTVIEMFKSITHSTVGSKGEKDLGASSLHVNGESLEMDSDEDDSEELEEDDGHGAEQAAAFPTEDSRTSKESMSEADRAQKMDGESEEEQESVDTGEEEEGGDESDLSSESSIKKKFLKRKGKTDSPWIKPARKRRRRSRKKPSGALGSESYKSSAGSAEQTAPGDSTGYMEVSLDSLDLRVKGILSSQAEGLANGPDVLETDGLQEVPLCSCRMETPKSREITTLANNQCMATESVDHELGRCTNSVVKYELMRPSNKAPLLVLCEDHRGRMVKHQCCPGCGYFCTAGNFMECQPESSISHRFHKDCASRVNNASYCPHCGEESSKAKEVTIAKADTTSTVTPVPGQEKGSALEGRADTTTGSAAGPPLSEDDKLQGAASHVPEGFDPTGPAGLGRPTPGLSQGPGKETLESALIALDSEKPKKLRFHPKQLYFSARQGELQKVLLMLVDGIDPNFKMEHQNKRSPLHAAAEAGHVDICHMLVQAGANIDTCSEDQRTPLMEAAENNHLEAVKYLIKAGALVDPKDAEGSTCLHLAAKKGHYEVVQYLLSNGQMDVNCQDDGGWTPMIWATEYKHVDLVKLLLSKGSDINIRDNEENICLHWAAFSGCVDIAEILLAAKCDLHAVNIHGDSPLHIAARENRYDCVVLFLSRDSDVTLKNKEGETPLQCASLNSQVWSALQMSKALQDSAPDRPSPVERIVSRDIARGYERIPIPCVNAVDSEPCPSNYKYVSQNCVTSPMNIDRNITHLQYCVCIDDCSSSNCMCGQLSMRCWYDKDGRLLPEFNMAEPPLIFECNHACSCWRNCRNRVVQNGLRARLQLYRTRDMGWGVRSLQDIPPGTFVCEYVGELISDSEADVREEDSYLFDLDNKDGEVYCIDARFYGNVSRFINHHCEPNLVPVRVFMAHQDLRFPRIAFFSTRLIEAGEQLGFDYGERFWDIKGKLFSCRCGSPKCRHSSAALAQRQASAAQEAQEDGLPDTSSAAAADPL

NSD2 SET domain [1] = biological target: T2, NSD2 SET domain (Homo sapiens, UniProt O96028); experiment: biochemical; set-up: Surface plasmon resonance binding to NSD2 SET domain
T2 construct: SET domain, residues 934-1241, N-terminal His tag, E. coli
T2 sequence (O96028 934-1241): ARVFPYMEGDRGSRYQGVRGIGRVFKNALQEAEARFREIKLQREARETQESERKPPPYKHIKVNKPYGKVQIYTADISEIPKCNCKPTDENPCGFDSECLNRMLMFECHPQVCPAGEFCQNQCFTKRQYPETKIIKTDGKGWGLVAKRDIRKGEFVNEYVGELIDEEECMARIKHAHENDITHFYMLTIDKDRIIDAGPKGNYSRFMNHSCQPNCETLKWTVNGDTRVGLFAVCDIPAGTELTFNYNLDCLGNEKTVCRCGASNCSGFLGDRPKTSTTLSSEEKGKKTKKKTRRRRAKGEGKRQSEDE
Method: To support an on-target mechanism of action for the five inhibitors, surface plasmon resonance (SPR) was used to determine whether each inhibitor interacts with the catalytic SET domain of NSD2. […] Chaetocin bound the SET domain with an apparent dissociation constant of 20 nM. Additionally, the data indicated super-stoichiometric binding, which might be due to a binding ratio higher than 1:1 that is consistent with chaetocin’s two disulfide moieties forming adducts with the NSD2 protein, or compound aggregation (data not shown) ([56]).

NSD3 = biological target: T3, NSD3 (Homo sapiens, UniProt Q9BZ95); experiment: biochemical
T3 sequence (Q9BZ95 1021-1322): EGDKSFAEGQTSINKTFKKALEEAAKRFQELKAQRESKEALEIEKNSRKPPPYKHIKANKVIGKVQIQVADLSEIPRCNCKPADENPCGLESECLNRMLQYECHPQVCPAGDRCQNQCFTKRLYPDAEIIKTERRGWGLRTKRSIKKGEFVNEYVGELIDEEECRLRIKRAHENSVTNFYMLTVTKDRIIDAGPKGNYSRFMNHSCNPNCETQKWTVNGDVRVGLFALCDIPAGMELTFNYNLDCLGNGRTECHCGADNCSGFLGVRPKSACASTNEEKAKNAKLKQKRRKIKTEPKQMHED

ASH1L = ASH1L (Homo sapiens, UniProt Q9NR48); details: inhibitor; read-out: Control IC50 (µM), Chaetocin
PRMT7 = PRMT7 (Homo sapiens, UniProt Q9NVM4); experiment: biochemical
SET8 = biological target: T4, SET8 (Homo sapiens, UniProt Q9NQR1); experiment: biochemical
T4 construct: gene KMT5A
T4 sequence (Q9NQR1 1-393): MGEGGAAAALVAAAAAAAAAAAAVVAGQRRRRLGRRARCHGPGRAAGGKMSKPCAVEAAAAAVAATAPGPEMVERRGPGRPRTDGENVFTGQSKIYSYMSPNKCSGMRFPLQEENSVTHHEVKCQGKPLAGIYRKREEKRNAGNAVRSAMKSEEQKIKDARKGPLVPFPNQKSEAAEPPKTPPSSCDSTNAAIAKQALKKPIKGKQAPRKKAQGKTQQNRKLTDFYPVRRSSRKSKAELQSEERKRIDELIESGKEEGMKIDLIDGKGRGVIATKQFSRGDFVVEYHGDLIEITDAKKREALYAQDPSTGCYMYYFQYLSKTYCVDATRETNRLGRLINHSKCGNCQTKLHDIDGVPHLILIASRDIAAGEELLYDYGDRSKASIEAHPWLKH

NSD2 SET domain [2] = biological target: T2, NSD2 SET domain; experiment: SPR Biacore 8K, single-cycle kinetics, […] model; type: binding
NSD1 = biological target: T5, NSD1 (Homo sapiens, UniProt Q96L73); experiment: HotSpot [3H]SAM filter-binding methyltransferase assay; type: biochemical
T5 construct: residues 1538-2696, N-terminal His tag, insect cell/baculovirus
T5 sequence (Q96L73 1538-2696): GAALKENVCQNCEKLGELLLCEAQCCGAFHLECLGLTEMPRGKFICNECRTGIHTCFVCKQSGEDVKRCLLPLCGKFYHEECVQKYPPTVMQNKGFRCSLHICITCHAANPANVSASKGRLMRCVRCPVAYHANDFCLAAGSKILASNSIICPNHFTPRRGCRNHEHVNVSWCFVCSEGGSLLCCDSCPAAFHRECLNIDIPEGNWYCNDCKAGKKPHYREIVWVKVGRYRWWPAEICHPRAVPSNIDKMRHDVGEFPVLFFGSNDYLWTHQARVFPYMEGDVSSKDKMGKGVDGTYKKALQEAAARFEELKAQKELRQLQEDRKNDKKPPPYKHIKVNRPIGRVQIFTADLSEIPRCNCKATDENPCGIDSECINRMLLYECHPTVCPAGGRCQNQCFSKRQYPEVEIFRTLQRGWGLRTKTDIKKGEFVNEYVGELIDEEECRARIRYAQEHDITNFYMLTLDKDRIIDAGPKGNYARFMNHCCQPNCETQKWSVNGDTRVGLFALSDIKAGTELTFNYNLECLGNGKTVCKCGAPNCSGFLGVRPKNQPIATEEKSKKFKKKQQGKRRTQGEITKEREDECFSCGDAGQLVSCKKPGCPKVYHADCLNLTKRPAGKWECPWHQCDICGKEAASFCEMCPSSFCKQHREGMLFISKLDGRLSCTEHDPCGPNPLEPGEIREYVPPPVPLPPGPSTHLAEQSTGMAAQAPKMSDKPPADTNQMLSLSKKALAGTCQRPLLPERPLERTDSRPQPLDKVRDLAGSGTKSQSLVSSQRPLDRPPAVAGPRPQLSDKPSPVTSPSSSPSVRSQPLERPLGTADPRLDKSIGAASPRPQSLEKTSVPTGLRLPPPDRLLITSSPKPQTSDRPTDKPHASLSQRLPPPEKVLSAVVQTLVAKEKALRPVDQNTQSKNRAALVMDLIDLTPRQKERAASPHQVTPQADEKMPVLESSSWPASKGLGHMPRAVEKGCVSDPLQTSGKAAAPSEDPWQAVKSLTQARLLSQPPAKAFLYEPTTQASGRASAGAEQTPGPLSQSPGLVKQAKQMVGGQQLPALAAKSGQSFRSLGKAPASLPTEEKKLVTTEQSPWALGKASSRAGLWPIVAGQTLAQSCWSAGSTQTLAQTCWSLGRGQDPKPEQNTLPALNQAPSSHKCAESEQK

DNMT3b = biological target: T6, DNMT3b (Homo sapiens, UniProt Q9UBC3); experiment: as above; type: biochemical
T6 construct: residues 2-853, N-terminal GST fusion, insect cell/baculovirus

[3] = apparent, super-stoichiometric binding, binder

Chain of PRMT7 (Q9NVM4 whole entry): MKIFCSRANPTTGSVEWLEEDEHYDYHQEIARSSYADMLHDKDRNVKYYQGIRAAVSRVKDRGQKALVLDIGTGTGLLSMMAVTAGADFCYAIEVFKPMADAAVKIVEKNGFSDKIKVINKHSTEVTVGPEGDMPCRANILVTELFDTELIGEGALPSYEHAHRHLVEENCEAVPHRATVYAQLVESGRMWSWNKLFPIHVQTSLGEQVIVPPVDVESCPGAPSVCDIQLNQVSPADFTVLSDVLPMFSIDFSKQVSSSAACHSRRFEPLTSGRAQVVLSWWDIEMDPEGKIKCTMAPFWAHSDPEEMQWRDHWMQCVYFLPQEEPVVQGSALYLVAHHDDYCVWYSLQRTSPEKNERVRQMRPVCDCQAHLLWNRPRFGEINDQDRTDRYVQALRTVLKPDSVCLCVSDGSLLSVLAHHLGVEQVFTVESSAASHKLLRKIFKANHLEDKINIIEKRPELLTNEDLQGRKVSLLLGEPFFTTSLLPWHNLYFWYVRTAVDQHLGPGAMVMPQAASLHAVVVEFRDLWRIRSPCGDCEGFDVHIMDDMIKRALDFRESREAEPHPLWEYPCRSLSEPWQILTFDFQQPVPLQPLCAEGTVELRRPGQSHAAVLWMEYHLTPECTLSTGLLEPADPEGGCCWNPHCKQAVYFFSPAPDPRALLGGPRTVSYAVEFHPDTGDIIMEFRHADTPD

Structure (SMILES): CN1C(=O)[C@@]23C[C@]4([C@]56C[C@@]78SS[C@@](CO)(C(=O)N7[C@H]5Nc5ccccc56)N(C)C8=O)c5ccccc5N[C@@H]4N2C(=O)[C@]1(CO)SS3 [Chaetocin]
IC50 (GLP): 77000 nM
Kd (NSD2 SET domain [1]; apparent, super-stoichiometric binding): 20 nM
koff (NSD2 SET domain [1]; [3]): 4.59e-05 s⁻¹
kon (NSD2 SET domain [1]; [3]): 2210 M⁻¹ s⁻¹
IC50 (NSD3): 90 nM
IC50 (ASH1L): 0.1 µM
IC50 (PRMT7): 156000 nM

IC50 (SET8): 950 nM
Structure (SMILES): Cc1ccc(NC2=CC(=O)c3sc(C)nc3C2=O)cc1 [Ryuvidine]

koff (NSD2 SET domain [1]; read-out: koff): 0.017 s⁻¹
kon (NSD2 SET domain [1]; read-out: kon): 4060 M⁻¹ s⁻¹
Kd (NSD2 SET domain [2]): 4200 nM
Structure (SMILES): C[S+](CC[C@H](N)C(=O)O)C[C@H]1O[C@@H](n2cnc3c(N)ncnc32)[C@H](O)[C@@H]1O (stereo partly shown) [SAM]

IC50 (NSD1): 9700 nM
IC50 (DNMT3b): 65 nM
Structure (SMILES): Nc1ncnc2c1ncn2[C@@H]1O[C@H](CSCC[C@H](N)C(=O)O)[C@@H](O)[C@H]1O [SAH, reference compound]
